What was measured:
SINAR (wild mustard) = test: Pre-emergence herbicidal activity, cool season; format: in vivo, Sinapis arvensis; settings: lowest tested rate with 80% or greater inhibition; rates 300, 100, 30, 10 g/ha; about 14 days
How it was run: (§1)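 Seeds sown in sterilised fertilised topsoil received surface-applied compound in 50:50 acetone/water, typically at 300, 100, 30 and 10 g/ha, then greenhouse-grown at 30/21° C (warm-season species) or 18/13° C (cool-season species). Percent inhibition versus untreated plants was scored at about 14 days, giving GR80; an asterisk marks activity short of 80% at the top rate.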

POLCO (wild buckwheat) = test: Pre-emergence herbicidal activity, cool season; format: in vivo, Polygonum convolvulus; settings: lowest tested rate with 80% or greater inhibition; rates 300, 100, 30, 10 g/ha; about 14 days
How it was run: (§2)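 Each pot received seeds on sterilized fertilized topsoil, a soil cover, and a surface spray of compound (300–10 g/ha, acetone/water 50:50). Plants grew about 14 days at 30/21 °C (PANMI, DIGSA) or 18/13 °C (ALOMY, POLCO) before inhibition was rated against untreated pots to give GR80.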

SETFA (giant foxtail) = test: Pre-emergence herbicidal activity, warm season; format: in vivo, Setaria faberi; settings: GR80 = lowest tested rate (300, 100, 30, 10 g/ha) with 80% or greater inhibition; approx. 14 days after treating; 30/21° C.
How it was run: as §1

SASKR (russian thistle) = test: Pre-emergence herbicidal activity, cool season; format: in vivo, Salsola kali; settings: lowest tested rate with 80% or greater inhibition; rates 300, 100, 30, 10 g/ha; about 14 days
How it was run: as §1

[1] = system: GALAP (catchweed bedstraw); test: Pre-emergence herbicidal activity, cool season; format: in vivo, Galium aparine; settings: lowest tested rate with 80% or greater inhibition; rates 300, 100, 30, 10 g/ha; about 14 days
How it was run: as §1

[2] = system: AGRRE (quackgrass (seedling)); test: Pre-emergence herbicidal activity, cool season; format: in vivo, Elymus repens; settings: GR80 = lowest tested rate (300, 100, 30, 10 g/ha) with 80% or greater inhibition; approx. 14 days after treating; 18/13° C.
Procedure: (§3) Tables 5 to 8 summarize results of tests conducted as described below to determine the pre-emergence herbicidal activity, in the form of a GR80 value, of illustrative compounds of this invention. […] Compounds of the invention were typically applied at rates of 300, 100, 30, and 10 g/ha. Where herbicidal activity was evident but 80% inhibition was not achieved at the highest rate tested, an asterisk (*) is shown in the following tables.
(§4) The pre-emergence tests were conducted by the following procedure. Topsoil was sieved to pass through a 1.27 cm screen. Fertilizer was added to the topsoil and the mixture was then sterilized by heating. The topsoil mixture was placed in a pot and compacted to a depth of 1.0 to 1.25 cm from the top of the pot. Seeds of each of several monocotyledonous and dicotyledonous annual plant species were placed on top of the soil. Additional soil was subsequently placed over the seeds to level-fill the pot. A known amount of each test compound dissolved or suspended in an appropriate organic solvent was diluted with a 50:50 mix of acetone and water and applied to the surface of the soil. After treatment the plants were placed in a greenhouse where they received 0.64 cm of overhead irrigation. All subsequent watering consisted of a light overhead mist and/or subirrigation as needed for germination and growth. Tables 5 and 6 below relate to warm season plant species which were placed after pre-emergence treatment in a greenhouse with a 30/21° C. day/night temperature regime. Tables 7 and 8 below relates to cool season plant species placed after pre-emergence treatment in a greenhouse or growth chamber with an 18/13° C. day/night temperature regime.
(§5) Approximately 14 days after planting and treating, the plants were observed and herbicidal efficacy recorded as percent inhibition by comparison with untreated plants.
(§6) The plant species usually regarded as weeds which were utilized in the tests are identified in the tables below according to the following legend, in which “d” indicates a dicotyledonous species and “m” a monocotyledonous species. All monocotyledonous species included in the tests herein are grasses.

[3] = system: AGSST (creeping bentgrass); test: Pre-emergence herbicidal activity, cool season; format: in vivo, Agrostis stolonifera; settings: GR80 = lowest tested rate (300, 100, 30, 10 g/ha) with 80% or greater inhibition; approx. 14 days after treating; 18/13° C.
How it was run: as §1

SOLNI (black nightshade) = test: Pre-emergence herbicidal activity, warm season; format: in vivo, Solanum nigrum; settings: GR80 = lowest tested rate (300, 100, 30, 10 g/ha) with 80% or greater inhibition; approx. 14 days after treating; 30/21° C.
How it was run: as §1

[4] = system: AEGCY (jointed goatgrass); test: Pre-emergence herbicidal activity, cool season; format: in vivo, Aegilops cylindrica; settings: GR80 = lowest tested rate (300, 100, 30, 10 g/ha) with 80% or greater inhibition; approx. 14 days after treating; 18/13° C.
Procedure: as §3, §4, §5, §6

SETVI (green foxtail) = test: Pre-emergence herbicidal activity, cool season; format: in vivo, Setaria viridis; settings: GR80 = lowest tested rate (300, 100, 30, 10 g/ha) with 80% or greater inhibition; approx. 14 days after treating; 18/13° C.
How it was run: as §1

DIGSA (large crabgrass) = test: Pre-emergence herbicidal activity, warm season; format: in vivo, Digitaria sanguinalis; settings: GR80 = lowest tested rate (300, 100, 30, 10 g/ha) with 80% or greater inhibition; approx. 14 days after treating; 30/21° C.
How it was run: as §2

ALOMY (blackgrass) = test: Pre-emergence herbicidal activity, cool season; format: in vivo, Alopecurus myosuroides; settings: GR80 = lowest tested rate (300, 100, 30, 10 g/ha) with 80% or greater inhibition; approx. 14 days after treating; 18/13° C.
How it was run: as §2

POROL (common purslane) = test: Pre-emergence herbicidal activity, warm season; format: in vivo, Portulaca oleracea; settings: GR80 = lowest tested rate (300, 100, 30, 10 g/ha) with 80% or greater inhibition; approx. 14 days after treating; 30/21° C.
How it was run: as §1

STEME (common chickweed) = test: Pre-emergence herbicidal activity, cool season; format: in vivo, Stellaria media; settings: lowest tested rate with 80% or greater inhibition; rates 300, 100, 30, 10 g/ha; about 14 days
How it was run: as §1

[5] = system: PANMI (wild proso millet); test: Pre-emergence herbicidal activity, warm season; format: in vivo, Panicum miliaceum; settings: GR80 = lowest tested rate (300, 100, 30, 10 g/ha) with 80% or greater inhibition; approx. 14 days after treating; 30/21° C.
How it was run: as §2

[6] = system: LAMPU (purple deadnettle); test: Pre-emergence herbicidal activity, cool season; format: in vivo, Lamium purpureum; settings: lowest tested rate with 80% or greater inhibition; rates 300, 100, 30, 10 g/ha; about 14 days
How it was run: as §1

[7] = system: VERPE (creeping speedwell); test: Pre-emergence herbicidal activity, cool season; format: in vivo, Veronica persicaria; settings: lowest tested rate with 80% or greater inhibition; rates 300, 100, 30, 10 g/ha; about 14 days
How it was run: as §1

AVEFA (wild oat) = test: Pre-emergence herbicidal activity, cool season; format: in vivo, Avena fatua; settings: GR80 = lowest tested rate (300, 100, 30, 10 g/ha) with 80% or greater inhibition; approx. 14 days after treating; 18/13° C.
Procedure: as §3, §4, §5, §6

KCHSC (kochia) = test: Pre-emergence herbicidal activity, cool season; format: in vivo, Kochia scoparia; settings: lowest tested rate with 80% or greater inhibition; rates 300, 100, 30, 10 g/ha; about 14 days
Procedure: as §3, §4, §5, §6

ECHCG (barnyardgrass) = test: Pre-emergence herbicidal activity, warm season; format: in vivo, Echinochloa crus-galli; settings: GR80 = lowest tested rate (300, 100, 30, 10 g/ha) with 80% or greater inhibition; approx. 14 days after treating; 30/21° C.
How it was run: as §1

[8] = system: SORHA (johnsongrass (seedling)); test: Pre-emergence herbicidal activity, warm season; format: in vivo, Sorghum halepense; settings: GR80 = lowest tested rate (300, 100, 30, 10 g/ha) with 80% or greater inhibition; approx. 14 days after treating; 30/21° C.
How it was run: as §1

AMARE (redroot pigweed) = test: Pre-emergence herbicidal activity, warm season; format: in vivo, Amaranthus retroflexus; settings: GR80 = lowest tested rate (300, 100, 30, 10 g/ha) with 80% or greater inhibition; approx. 14 days after treating; 30/21° C.
How it was run: as §1

[9] = system: BRAPP (broadleaf signalgrass); test: Pre-emergence herbicidal activity, warm season; format: in vivo, Brachiaria platyphylla; settings: GR80 = lowest tested rate (300, 100, 30, 10 g/ha) with 80% or greater inhibition; approx. 14 days after treating; 30/21° C.
How it was run: as §1

PANDI (fall panicum) = test: Pre-emergence herbicidal activity, warm season; format: in vivo, Panicum dichotomiflorum; settings: GR80 = lowest tested rate (300, 100, 30, 10 g/ha) with 80% or greater inhibition; approx. 14 days after treating; 30/21° C.
How it was run: as §1

[10] = system: CHEAL (common lambsquarters); test: Pre-emergence herbicidal activity, warm season; format: in vivo, Chenopodium album; settings: GR80 = lowest tested rate (300, 100, 30, 10 g/ha) with 80% or greater inhibition; approx. 14 days after treating; 30/21° C.
How it was run: as §1

DATST (jimsonweed) = test: Pre-emergence herbicidal activity, warm season; format: in vivo, Datura stramonium; settings: GR80 = lowest tested rate (300, 100, 30, 10 g/ha) with 80% or greater inhibition; approx. 14 days after treating; 30/21° C.
How it was run: as §1

CONAR (field bindweed) = test: Pre-emergence herbicidal activity, warm season; format: in vivo, Convolvulus arvensis; settings: GR80 = lowest tested rate (300, 100, 30, 10 g/ha) with 80% or greater inhibition; approx. 14 days after treating; 30/21° C.
Procedure: as §3, §4, §5, §6

LOLMG (annual ryegrass) = test: Pre-emergence herbicidal activity, cool season; format: in vivo, Lolium multiflorum; settings: GR80 = lowest tested rate (300, 100, 30, 10 g/ha) with 80% or greater inhibition; approx. 14 days after treating; 18/13° C.
How it was run: as §1

[11] = system: CIRAR (canada thistle (seedling)); test: Pre-emergence herbicidal activity, warm season; format: in vivo, Cirsium arvense; settings: GR80 = lowest tested rate (300, 100, 30, 10 g/ha) with 80% or greater inhibition; approx. 14 days after treating; 30/21° C.
How it was run: as §1

SMILES | Pre-emergence activity GR80, SINAR (SINAR (wild mustard)) | Pre-emergence activity GR80, POLCO (POLCO (wild buckwheat)) | Pre-emergence activity (GR80) SETFA (SETFA (giant foxtail)) [g/ha] | Pre-emergence activity GR80, SASKR (SASKR (russian thistle)) | Pre-emergence activity GR80, GALAP [1] | Pre-emergence activity (GR80) AGRRE [2] [g/ha] | Pre-emergence activity (GR80) AGSST [3] [g/ha] | Pre-emergence activity (GR80) AEGCY [4] [g/ha] | Pre-emergence activity (GR80) SETVI (SETVI (green foxtail)) [g/ha] | Pre-emergence activity (GR80) DIGSA (DIGSA (large crabgrass)) [g/ha] | Pre-emergence activity (GR80) ALOMY (ALOMY (blackgrass)) | Pre-emergence activity (GR80) POROL (POROL (common purslane)) [g/ha] | Pre-emergence activity GR80, STEME (STEME (common chickweed)) [g/ha] | Pre-emergence activity (GR80) PANMI [5] [g/ha] | Pre-emergence activity GR80, LAMPU [6] | Pre-emergence activity GR80, VERPE [7] | Pre-emergence activity (GR80) SORHA [8] [g/ha] | Pre-emergence activity (GR80) AMARE (AMARE (redroot pigweed)) [g/ha] | Pre-emergence activity (GR80) CHEAL [10] [g/ha] | other results
COCCN(C)C(=O)n1cnc(S(=O)(=O)C(F)(F)C(F)(F)Br)n1 [Example 76] | 10 g/ha | 300 g/ha | 300 | 30 g/ha | 100 g/ha | 100 | 100 | 300 | 100 | 300 | 300 g/ha | 300 | 300 | 100 | 100 g/ha | 30 g/ha |  |  |  | Pre-emergence activity (GR80) SOLNI (SOLNI (black nightshade)): 300 g/ha; Pre-emergence activity (GR80) AVEFA (AVEFA (wild oat)): 300 g/ha
CCOC(=O)C(F)(F)S(=O)(=O)c1ncn(C(=O)N(CC)CC)n1 [Example 7] | * (activity observed, at least at highest rate, but <80% inhibition) | [empty] | 300 | [empty] | [empty] | 300 | 300 |  |  | 300 | * (activity observed, at least at highest rate, but <80% inhibition) |  | 30 | 300 | [empty] | [empty] | 300 | 300 | 300 | Pre-emergence activity GR80, KCHSC (KCHSC (kochia)): [empty]; Pre-emergence activity (GR80) ECHCG (ECHCG (barnyardgrass)): 300 g/ha; Pre-emergence activity (GR80) BRAPP [9]: 300 g/ha; Pre-emergence activity (GR80) PANDI (PANDI (fall panicum)): 300 g/ha; Pre-emergence activity (GR80) DATST (DATST (jimsonweed)): 300 g/ha
O=C(N1CCCC1)n1cnc(S(=O)(=O)C(F)(F)Br)n1 [Example 23, 3-(bromodifluoromethylsulfonyl)-1-(pyrrolidinocarbonyl)-1,2,4-triazole] | 300 g/ha | 30 g/ha | 100 | [empty] | 300 g/ha |  | 100 | 300 | 100 | 300 | 300 g/ha | 300 | 100 | 100 | 100 g/ha | [empty] | 300 | 300 | 300 | Pre-emergence activity (GR80) CONAR (CONAR (field bindweed)): 300 g/ha; Pre-emergence activity (GR80) LOLMG (LOLMG (annual ryegrass)): 300 g/ha; Pre-emergence activity (GR80) CIRAR [11]: 300 g/ha

From patent publication US6461997B1, “Triazole sulfones having herbicidal activity” (Monsanto Technology LLC, priority 1999, dated 2002)
